# Key:
# [1] = tested on: Raji; test: Cytotoxicity against human Raji cells after 72 hrs by celltiter-glo assay; assay type: cell-based
# [2] = tested on: BJ; test: Cytotoxicity against human BJ cells after 72 hrs by celltiter-glo assay; assay type: cell-based
# [3] = tested on: Plasmodium falciparum; test: Antimalarial activity against chloroquine-sensitive Plasmodium falciparum 3D7 infected in O-positive erythrocytes assessed as parasite growth inhibition after 72 hrs by DNA staining-based assay; assay type: functional, organism-based; details: 3D7, 72 h
# [4] = tested on: HEK293; test: Cytotoxicity against HEK293 cells after 72 hrs by celltiter-glo assay; assay type: cell-based; details: Homo sapiens, HEK293, 72 h
# [5] = tested on: Plasmodium falciparum; test: Antimalarial activity against chloroquine and pyrimethamine-resistant Plasmodium falciparum K1 infected in O-positive erythrocytes assessed as parasite growth inhibition after 72 hrs by DNA staining-based assay; assay type: functional, organism-based; details: K1, 72 h
# [6] = tested on: HepG2; test: Cytotoxicity against human HepG2 cells after 72 hrs by celltiter-glo assay; assay type: cell-based; details: HepG2, 72 h
SMILES,EC50 [1] [µM],EC50 [2] [µM],EC50 [3] [µM],EC50 [4] [µM],EC50 [5] [µM],EC50 [6] [µM]
C/C1=C/C2=C[C@H](C)C[C@@]23O[C@]2(CC(C)(C)[C@@H](OC(C)C)[C@@H]2C1=O)[C@@H](C)C3=O,26,26,15,26,15,26
C=C1CC[C@H]2[C@@H](c3c(C)c(OC(C)=O)c4c(c31)C(=O)C(C)C4)C2(C)C (some centres not stated),26,26,15,26,6.31,26
C[C@@H]1CC[C@H]2CC3=C(C(=O)O)CC[C@@]31C2(C)C,26,,15,26,15,26
COC(=O)C1=C2C[C@@H]3CC[C@@H](C)[C@]2(CC1)C3(C)C,26,26,15,26,15,26
C[C@@H]1CC[C@H]2CC3=C(C=O)CC[C@@]31C2(C)C,26,26,15,26,15,26
C[C@@H]1CC[C@H]2CC3=C(CO)CC[C@@]31C2(C)C,26,26,15,26,15,26
C[C@@H]1CC[C@H]2CC3C(=O)CC[C@@]31C2(C)C (some centres not stated),26,26,15,26,15,26
CCOC(=O)CNC(=O)[C@H](CS[C@H]1[C@@H]2C(=O)/C(C)=C\C3=C[C@H](C)C[C@@]34O[C@]2(CC1(C)C)[C@@H](C)C4=O)NC(=O)CC[C@H](N)C(=O)O,6.09,12.5,15,26,15,26
C[C@@H]1C[C@@]23O[C@@]45CC(C)(C)[C@@H](Sc6ccccc6)[C@@H]4C(=O)C(C)(C=C2[C@H]1Sc1ccccc1)[C@]3(O)[C@@H]5C (some centres not stated),26,26,6.45,26,5.57,26
C/C1=C/[C@]23O[C@H]2[C@H](C)C=C3C(=O)[C@@](C)(O)C(=O)CC(C)(C)/C=C/C1=O,26,26,15,26,15,26
C=C1/C=C/C(C)(C)CC2=C(C)C(=O)[C@]3(C[C@@H](C)C=C3/C=C\1C)O2,26,26,15,26,15,26
CC1=C2CC(C)(C)/C=C/C/C(C)=C\C3=C[C@H](C)C[C@]3(O2)C1=O,26,26,15,26,15,26
C/C1=C/C2=C[C@H](C)C[C@@]23O[C@]2(CC(C)(C)C[C@@H]2[C@@]1(O)C(F)(F)F)[C@@H](C)C3=O,26,26,15,26,15,26
CC1=C2CC(C)(C)/C=C/C(=O)/C(C)=C\C3=C[C@H](C)C[C@]3(O2)[C@@]1(O)C(F)(F)F,26,26,15,26,15,26
CC1=C2CC(C)(C)/C=C/C(=O)/C(C)=C\C3=C[C@H](C)C[C@]3(O2)[C@]1(C)O,26,26,0.624,26,15,26
CC1=C2CC(C)(C)[C@@H](C)CC(=O)/C(C)=C\C3=C[C@H](C)C[C@]3(O2)C1=O,26,26,15,26,15,26
CC1=C2CC(C)(C)/C=C/C(=O)/C(C)=C\C3=C[C@H](C)C[C@]3(O2)[C@@]1(O)C#N,21.2,26,15,26,15,26
C/C1=C/C2=C[C@H](C)C[C@@]23O[C@]2(CC(C)(C)C[C@@H]2[C@@]1(O)C#N)[C@@H](C)C3=O,26,26,15,8.66,15,26
CC1=C2CC(C)(C)[C@@H]3C=C(OC3)/C(C)=C\C3=C[C@H](C)C[C@]3(O2)C1=O,26,26,15,26,15,26

SMILES,EC50 [1] [µM],EC50 [2] [µM],EC50 [3] [µM],EC50 [4] [µM],EC50 [5] [µM],EC50 [6] [µM]
CC1=C2CC(C)(C)/C=C/[C@H](O)/C(C)=C\C3=C[C@H](C)C[C@]3(O2)C1=O,26,10.6,9.23,26,15,18.7
CC(=O)O[C@H]1/C=C/C(C)(C)CC2=C(C)C(=O)[C@]3(C[C@@H](C)C=C3/C=C\1C)O2,26,26,3.2,26,15,26
CC1=C2CC(C)(C)/C=C/[C@@H](O)/C(C)=C\C3=C[C@H](C)C[C@]3(O2)C1=O,26,26,0.744,26,15,26
CC(=O)O[C@@H]1/C=C/C(C)(C)CC2=C(C)C(=O)[C@]3(C[C@@H](C)C=C3/C=C\1C)O2,26,26,1.63,26,15,26
CC(=O)O[C@H]1/C=C/C(C)(C)CC2=C(C)[C@@H](OC(C)=O)[C@]3(C[C@@H](C)C=C3/C=C\1C)O2,26,26,5.68,26,15,26
CC1=C2CC(C)(C)/C=C/[C@H](OC(=S)n3ccnc3)/C(C)=C\C3=C[C@H](C)C[C@]3(O2)C1=O,26,26,5.67,26,5.85,26
CC1=C2CC(C)(C)/C=C/[C@H](OC(=S)Sc3ccccc3)/C(C)=C\C3=C[C@H](C)C[C@]3(O2)C1=O,26,26,15,26,15,26
C/C1=C/C2=C[C@H](C)C[C@@]23O[C@]2(CC(C)(C)C[C@@H]2[C@@H]1OC(=S)Sc1ccccc1)[C@@H](C)C3=O,26,26,8.88,17.8,5.69,26
C/C1=C/C2=C[C@H](C)C[C@@]23O[C@]2(CC(C)(C)[C@@H](Br)[C@@H]2C1=O)[C@](C)(Br)C3=O,4.38,26,15,26,15,26
C/C1=C/C2=C[C@H](C)CC2(Br)C(=O)[C@@]2(C)O[C@@H]([C@@H](Br)C1=O)C(C)(C)CC2=O (some centres not stated),26,26,15,26,15,26
COc1ccc(/C2=C\C(=O)/C(C)=C\C3=C[C@H](C)C[C@@]34OC(=C(C)C4=O)CC2(C)C)cc1,26,26,15,26,15,26
CC1=C2CC(C)(C)/C(c3ccccc3)=C/C(=O)/C(C)=C\C3=C[C@H](C)C[C@]3(O2)C1=O,26,26,15,26,15,26
C/C1=C/C2=C[C@H](C)C[C@@]23O[C@]2(CC(C)(C)[C@@H](O)[C@@H]2C1=O)[C@@H](C)C3=O,26,10.4,15,26,15,26
CO[C@H]1[C@@H]2C(=O)/C(C)=C\C3=C[C@H](C)C[C@@]34O[C@]2(CC1(C)C)[C@@H](C)C4=O,26,26,15,26,15,26
C/C1=C/C2=C[C@H](C)C[C@@]23O[C@]2(CC(C)(C)C4CC1(ON4)O2)C(C)C3=O (some centres not stated),26,26,15,26,15,26
C/C1=C/C2=C[C@H](C)C[C@@]23O[C@]2(CC(C)(C)[C@@H](Nc4ccccc4)[C@@H]2C1=O)[C@@H](C)C3=O,26,12.6,8.88,26,5.58,26
CC1=C2CC(C)(C)CCC(=O)C(C)CC3C[C@H](C)C[C@]3(O2)C1=O (mixture of isomers),26,26,15,26,15,26
CC1=C2CC(C)(C)CCC(=O)C(C)CC3=C[C@H](C)C[C@]3(O2)C1=O (mixture of isomers),26,26,15,26,15,26
CC(=O)O[C@H]1CC[C@]2(C)[C@H]3CC[C@]4(C)C(=CC[C@@]5(C(=O)O)CCC(C)(C)C[C@H]54)[C@]3(C)CC[C@H]2C1(C)C [ACETYL ALEURITOLIC ACID],26,26,15,26,15,26
